# What was measured:
# B. subtilis 168 [1] = assay: fitness (endpoint OD595 vs no drug) (fraction); higher = more growth
# Outline: (§1)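 Bacterial growth was followed in 384-well plates seeded at OD595 0.01, with 30 µl per well, or 55 µl for S. pneumoniae, in TSB, LB Lennox or CY at 37 °C. OD595 was read every 30 min for 14 h, and each reading had the first reading subtracted as background. Fitness is the background-corrected optical density at entry into stationary phase divided by the robust mean of the no-drug control wells. This ratio is capped at 1.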
# S. aureus Newman [2] = assay: as above
# Outline: as §1
# S. pneumoniae D39V [3] = assay: as above; settings: main component drawn
# Outline: as §1
# B. subtilis 168 [4] = assay: Bliss interaction score (quartile over a dose matrix) (fitness difference); higher = more antagonism (negative = synergy)
# Outline: (§2)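 Values were capped at 1 after dividing OD595 at stationary-phase entry by the plate's robust no-drug mean. This ratio is fitness, and single-drug fitness was inferred from the combination data. The Bliss score is observed minus product-expected fitness, given as quartiles over technical, biological and donor/recipient replicates.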
# S. aureus DSM 20231 = assay: as above
# Outline: as §2
# S. aureus Newman [5] = assay: as above
# Outline: as §2
# S. pneumoniae D39V [6] = assay: as above
# Outline: as §2
# [7] = first compound 0.125 µg/mL, partner 1 µg/mL
# [8] = first compound 0.25 µg/mL, partner 1 µg/mL
# [9] = first compound 0.25 µg/mL, partner 0.25 µg/mL
# [10] = first compound 0.25 µg/mL, partner 0.5 µg/mL
# [11] = first compound 0.5 µg/mL, partner 0.25 µg/mL
# [12] = first compound 0.5 µg/mL, partner 0.5 µg/mL
# [13] = first compound 0.5 µg/mL, partner 1 µg/mL
# 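Wherever Bliss interaction score (quartile over a dose matrix) is given: first quartile when negative (synergy) and third quartile when positive (antagonism).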
compound,measurement,setting,value
CNC(C)C1CCC(N)C(OC2C(N)CC(N)C(OC3OCC(C)(O)C(NC)C3O)C2O)O1 (stereo not given) [Gentamicin] + COc1c(N2C[C@@H]3CCCN[C@@H]3C2)c(F)cc2c(=O)c(C(=O)O)cn(C3CC3)c12 [Moxifloxacin],fitness,"B. subtilis 168 [1]; first compound 0.0625 µg/mL, partner 0.0625 µg/mL, main component drawn",0.0368
same,fitness,"B. subtilis 168 [1]; first compound 0.0625 µg/mL, partner 0.125 µg/mL, main component drawn",0.048
same,fitness,"B. subtilis 168 [1]; first compound 0.0625 µg/mL, partner 2 µg/mL, main component drawn",0.0515
same,fitness,"B. subtilis 168 [1]; first compound 0.0625 µg/mL, partner 4 µg/mL, main component drawn",0.0389
same,fitness,"B. subtilis 168 [1]; first compound 0.0625 µg/mL, partner 8 µg/mL, main component drawn",0.0196
same,fitness,"B. subtilis 168 [1]; first compound 0.125 µg/mL, partner 0.0625 µg/mL, main component drawn",0.0582
same,fitness,"B. subtilis 168 [1]; first compound 0.125 µg/mL, partner 0.125 µg/mL, main component drawn",0.0573
same,fitness,"B. subtilis 168 [1]; first compound 0.125 µg/mL, partner 2 µg/mL, main component drawn",0.0401
same,fitness,"B. subtilis 168 [1]; first compound 0.125 µg/mL, partner 4 µg/mL, main component drawn",0.0418
same,fitness,"B. subtilis 168 [1]; first compound 0.125 µg/mL, partner 8 µg/mL, main component drawn",0.0222
same,fitness,"B. subtilis 168 [1]; first compound 0.25 µg/mL, partner 0.0312 µg/mL, main component drawn",0.0645
same,fitness,"B. subtilis 168 [1]; first compound 0.25 µg/mL, partner 0.0625 µg/mL, main component drawn",0.069
same,fitness,"B. subtilis 168 [1]; first compound 0.25 µg/mL, partner 0.125 µg/mL, main component drawn",0.069
same,fitness,"B. subtilis 168 [1]; first compound 0.25 µg/mL, partner 2 µg/mL, main component drawn",0.0498
same,fitness,"B. subtilis 168 [1]; first compound 0.25 µg/mL, partner 4 µg/mL, main component drawn",0.0517
same,fitness,"B. subtilis 168 [1]; first compound 0.25 µg/mL, partner 8 µg/mL, main component drawn",0.0301
same,fitness,"S. aureus Newman [2]; first compound 0.375 µg/mL, partner 0.0075 µg/mL, main component drawn",0.733
same,fitness,"S. aureus Newman [2]; first compound 0.375 µg/mL, partner 0.015 µg/mL, main component drawn",0.515
same,fitness,"S. aureus Newman [2]; first compound 0.375 µg/mL, partner 0.03 µg/mL, main component drawn",0.153
same,fitness,"S. aureus Newman [2]; first compound 0.5 µg/mL, partner 0.0075 µg/mL, main component drawn",0.801
same,fitness,"S. aureus Newman [2]; first compound 0.5 µg/mL, partner 0.015 µg/mL, main component drawn",0.74
same,fitness,"S. aureus Newman [2]; first compound 0.75 µg/mL, partner 0.0075 µg/mL, main component drawn",0.722
same,fitness,"S. aureus Newman [2]; first compound 0.75 µg/mL, partner 0.015 µg/mL, main component drawn",0.544
same,fitness,"S. aureus Newman [2]; first compound 0.75 µg/mL, partner 0.03 µg/mL, main component drawn",0.189
same,fitness,"S. aureus Newman [2]; first compound 1 µg/mL, partner 0.0075 µg/mL, main component drawn",0.841
same,fitness,"S. aureus Newman [2]; first compound 1 µg/mL, partner 0.015 µg/mL, main component drawn",0.776
same,fitness,"S. aureus Newman [2]; first compound 1.5 µg/mL, partner 0.015 µg/mL, main component drawn",0.195
same,fitness,"S. aureus Newman [2]; first compound 1.5 µg/mL, partner 0.03 µg/mL, main component drawn",0.0456
same,fitness,"S. aureus Newman [2]; first compound 2 µg/mL, partner 0.0075 µg/mL, main component drawn",0.879
same,fitness,"S. aureus Newman [2]; first compound 2 µg/mL, partner 0.015 µg/mL, main component drawn",0.777
same,fitness,"S. pneumoniae D39V [3]; first compound 2 µg/mL, partner 0.005 µg/mL",≥ 1
same,fitness,"S. pneumoniae D39V [3]; first compound 2 µg/mL, partner 0.01 µg/mL",0.987
same,fitness,"S. pneumoniae D39V [3]; first compound 2 µg/mL, partner 0.02 µg/mL",0.949
same,fitness,"S. pneumoniae D39V [3]; first compound 2 µg/mL, partner 0.0312 µg/mL",0.0909
same,fitness,"S. pneumoniae D39V [3]; first compound 2 µg/mL, partner 0.0625 µg/mL",0.0352
same,fitness,"S. pneumoniae D39V [3]; first compound 2 µg/mL, partner 0.125 µg/mL",0.0208
same,fitness,"S. pneumoniae D39V [3]; first compound 4 µg/mL, partner 0.005 µg/mL",0.999
same,fitness,"S. pneumoniae D39V [3]; first compound 4 µg/mL, partner 0.01 µg/mL",0.998
same,fitness,"S. pneumoniae D39V [3]; first compound 4 µg/mL, partner 0.02 µg/mL",0.987
same,fitness,"S. pneumoniae D39V [3]; first compound 4 µg/mL, partner 0.0312 µg/mL",0.062
same,fitness,"S. pneumoniae D39V [3]; first compound 4 µg/mL, partner 0.0625 µg/mL",0.0383
same,fitness,"S. pneumoniae D39V [3]; first compound 4 µg/mL, partner 0.125 µg/mL",0.0445
same,fitness,"S. pneumoniae D39V [3]; first compound 8 µg/mL, partner 0.005 µg/mL",0.972
same,fitness,"S. pneumoniae D39V [3]; first compound 8 µg/mL, partner 0.01 µg/mL",0.972
same,fitness,"S. pneumoniae D39V [3]; first compound 8 µg/mL, partner 0.02 µg/mL",0.925
same,fitness,"S. pneumoniae D39V [3]; first compound 8 µg/mL, partner 0.0312 µg/mL",0.0628
same,fitness,"S. pneumoniae D39V [3]; first compound 8 µg/mL, partner 0.0625 µg/mL",0.0435
same,fitness,"S. pneumoniae D39V [3]; first compound 8 µg/mL, partner 0.125 µg/mL",0.0398
same,Bliss interaction score,B. subtilis 168 [4]; main component drawn,0.0561
same,Bliss interaction score,S. aureus DSM 20231; main component drawn,0.0845
same,Bliss interaction score,S. aureus Newman [5]; main component drawn,0.0666
same,Bliss interaction score,S. pneumoniae D39V [6]; main component drawn,-0.0566
CC[C@H]1OC(=O)[C@H](C)[C@@H](O[C@H]2C[C@@](C)(OC)[C@@H](O)[C@H](C)O2)[C@H](C)[C@@H](O[C@@H]2O[C@H](C)C[C@H](N(C)C)[C@H]2O)[C@](C)(O)C[C@@H](C)CN(C)[C@H](C)[C@@H](O)[C@]1(C)O [Azithromycin] + CN[C@@H]1[C@H](O[C@H]2[C@H](O[C@H]3[C@H](O)[C@@H](O)[C@H](N=C(N)N)[C@@H](O)[C@@H]3N=C(N)N)O[C@@H](C)[C@]2(O)C=O)O[C@@H](CO)[C@H](O)[C@H]1O [Streptomycin],fitness,"B. subtilis 168 [1]; first compound 0.25 µg/mL, partner 2 µg/mL",0.943
same,fitness,"B. subtilis 168 [1]; first compound 0.25 µg/mL, partner 4 µg/mL",0.807
same,fitness,"B. subtilis 168 [1]; first compound 0.5 µg/mL, partner 2 µg/mL",0.843
same,fitness,"B. subtilis 168 [1]; first compound 0.5 µg/mL, partner 4 µg/mL",0.739
same,fitness,S. aureus Newman [2]; [7],0.881
same,fitness,S. aureus Newman [2]; [8],0.849
same,Bliss interaction score,B. subtilis 168 [4],0.206
same,Bliss interaction score,S. aureus DSM 20231,0.108
same,Bliss interaction score,S. aureus Newman [5],0.102
same,Bliss interaction score,S. pneumoniae D39V [6],-0.0455
CC[C@H]1OC(=O)[C@H](C)[C@@H](O[C@H]2C[C@@](C)(OC)[C@@H](O)[C@H](C)O2)[C@H](C)[C@@H](O[C@@H]2O[C@H](C)C[C@H](N(C)C)[C@H]2O)[C@](C)(O)C[C@@H](C)CN(C)[C@H](C)[C@@H](O)[C@]1(C)O [Azithromycin] + CC1=C(C(=O)O)N2C(=O)[C@@H](NC(=O)[C@H](N)c3ccccc3)[C@H]2SC1 [Cephalexin],fitness,"B. subtilis 168 [1]; first compound 0.25 µg/mL, partner 0.125 µg/mL",0.856
same,fitness,B. subtilis 168 [1]; [9],0.936
same,fitness,B. subtilis 168 [1]; [10],0.899
same,fitness,B. subtilis 168 [1]; [8],≥ 1
same,fitness,"B. subtilis 168 [1]; first compound 0.5 µg/mL, partner 0.125 µg/mL",0.823
same,fitness,B. subtilis 168 [1]; [11],0.845
same,fitness,B. subtilis 168 [1]; [12],0.849
same,fitness,B. subtilis 168 [1]; [13],0.867
same,fitness,"B. subtilis 168 [1]; first compound 1 µg/mL, partner 0.125 µg/mL",0.543
same,fitness,"S. aureus Newman [2]; first compound 0.125 µg/mL, partner 0.25 µg/mL",0.892
same,fitness,"S. aureus Newman [2]; first compound 0.125 µg/mL, partner 0.5 µg/mL",0.918
same,fitness,S. aureus Newman [2]; [7],0.907
same,fitness,S. aureus Newman [2]; [9],0.893
same,fitness,S. aureus Newman [2]; [10],0.915
same,fitness,S. aureus Newman [2]; [8],0.913
same,fitness,S. aureus Newman [2]; [11],0.739
same,fitness,S. aureus Newman [2]; [12],0.719
same,fitness,S. aureus Newman [2]; [13],0.728
same,Bliss interaction score,B. subtilis 168 [4],0.0757
same,Bliss interaction score,S. aureus DSM 20231,-0.0843
same,Bliss interaction score,S. aureus Newman [5],0.0763
same,Bliss interaction score,S. pneumoniae D39V [6],-0.0716
CC[C@H]1OC(=O)[C@H](C)[C@@H](O[C@H]2C[C@@](C)(OC)[C@@H](O)[C@H](C)O2)[C@H](C)[C@@H](O[C@@H]2O[C@H](C)C[C@H](N(C)C)[C@H]2O)[C@](C)(O)C[C@@H](C)CN(C)[C@H](C)[C@@H](O)[C@]1(C)O [Azithromycin] + O=C(O)c1cn(C2CC2)c2cc(N3CCNCC3)c(F)cc2c1=O [Ciprofloxacin],fitness,"B. subtilis 168 [1]; first compound 0.25 µg/mL, partner 0.0098 µg/mL",0.886
same,fitness,"B. subtilis 168 [1]; first compound 0.25 µg/mL, partner 0.0195 µg/mL",0.781
same,fitness,"B. subtilis 168 [1]; first compound 0.5 µg/mL, partner 0.0195 µg/mL",0.702
same,fitness,"B. subtilis 168 [1]; first compound 2 µg/mL, partner 0.0098 µg/mL, one replicate",0.428
same,fitness,"B. subtilis 168 [1]; first compound 2 µg/mL, partner 0.0195 µg/mL, one replicate",0.279
same,fitness,"B. subtilis 168 [1]; first compound 2 µg/mL, partner 0.039 µg/mL, one replicate",0.258
same,fitness,"S. aureus Newman [2]; first compound 0.125 µg/mL, partner 0.0375 µg/mL",0.684
same,fitness,"S. aureus Newman [2]; first compound 0.125 µg/mL, partner 0.075 µg/mL",0.631
same,fitness,"S. aureus Newman [2]; first compound 0.25 µg/mL, partner 0.0375 µg/mL",0.697
same,fitness,"S. aureus Newman [2]; first compound 0.25 µg/mL, partner 0.075 µg/mL",0.697
same,fitness,"S. aureus Newman [2]; first compound 0.5 µg/mL, partner 0.0375 µg/mL",0.547
same,fitness,"S. aureus Newman [2]; first compound 0.5 µg/mL, partner 0.075 µg/mL",0.581
same,Bliss interaction score,B. subtilis 168 [4],0.228
same,Bliss interaction score,S. aureus DSM 20231,0.105
same,Bliss interaction score,S. aureus Newman [5],0.102
same,Bliss interaction score,S. pneumoniae D39V [6],-0.0524
